Experiments:
Assay in all cases: KINOMEscan
RIPK4 = molecular target: T1, RIPK4 (Homo sapiens, UniProt P57078); type: binding; details: read-out: % Ctrl
T1 construct: purchased DiscoveRx KINOMEscan

PIP5K2C = molecular target: T2, PIP5K2C (Homo sapiens, UniProt Q8TBX8); type: binding; details: read-out: % Ctrl
T2 construct: purchased DiscoveRx KINOMEscan

FGFR3(G697C) = molecular target: T3, FGFR3(G697C) (Homo sapiens, UniProt P22607, G697C); type: binding; details: read-out: % Ctrl
T3 construct: purchased DiscoveRx KINOMEscan
T3 sequence (P22607 23-806 G697C): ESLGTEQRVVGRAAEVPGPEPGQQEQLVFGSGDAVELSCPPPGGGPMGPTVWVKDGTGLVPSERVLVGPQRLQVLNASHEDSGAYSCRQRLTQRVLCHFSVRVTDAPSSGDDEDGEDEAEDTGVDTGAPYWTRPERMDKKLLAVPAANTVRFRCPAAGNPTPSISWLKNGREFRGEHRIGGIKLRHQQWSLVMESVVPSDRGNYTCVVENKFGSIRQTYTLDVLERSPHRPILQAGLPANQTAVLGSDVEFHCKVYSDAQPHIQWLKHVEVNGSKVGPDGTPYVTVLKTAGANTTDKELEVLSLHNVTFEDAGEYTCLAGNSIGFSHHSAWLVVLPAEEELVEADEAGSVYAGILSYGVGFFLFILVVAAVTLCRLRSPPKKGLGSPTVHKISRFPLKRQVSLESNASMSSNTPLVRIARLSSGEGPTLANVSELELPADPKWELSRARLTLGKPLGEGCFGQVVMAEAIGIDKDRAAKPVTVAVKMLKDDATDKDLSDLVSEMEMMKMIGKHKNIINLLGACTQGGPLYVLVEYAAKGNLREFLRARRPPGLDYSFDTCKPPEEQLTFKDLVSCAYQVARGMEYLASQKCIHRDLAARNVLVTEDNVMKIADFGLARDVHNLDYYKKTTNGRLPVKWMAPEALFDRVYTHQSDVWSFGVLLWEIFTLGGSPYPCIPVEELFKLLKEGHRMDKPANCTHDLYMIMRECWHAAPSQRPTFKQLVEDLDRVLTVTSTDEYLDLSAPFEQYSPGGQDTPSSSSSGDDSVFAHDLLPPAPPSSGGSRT

SNRK = molecular target: T4, SNRK (Homo sapiens, UniProt Q9NRH2); type: binding; details: read-out: % Ctrl
T4 construct: purchased DiscoveRx KINOMEscan

MST1R = molecular target: T5, MST1R (Homo sapiens, UniProt Q04912); type: binding; details: read-out: % Ctrl
T5 construct: purchased DiscoveRx KINOMEscan

PFPK5(P.falciparum) = molecular target: T6, PFPK5(P.falciparum) (Plasmodium falciparum, UniProt P61075); type: binding; details: read-out: % Ctrl
T6 construct: purchased DiscoveRx KINOMEscan

MAP3K4 = molecular target: T7, MAP3K4 (Homo sapiens, UniProt Q9Y6R4); type: binding; details: read-out: % Ctrl
T7 construct: purchased DiscoveRx KINOMEscan
T7 sequence (Q9Y6R4 whole entry): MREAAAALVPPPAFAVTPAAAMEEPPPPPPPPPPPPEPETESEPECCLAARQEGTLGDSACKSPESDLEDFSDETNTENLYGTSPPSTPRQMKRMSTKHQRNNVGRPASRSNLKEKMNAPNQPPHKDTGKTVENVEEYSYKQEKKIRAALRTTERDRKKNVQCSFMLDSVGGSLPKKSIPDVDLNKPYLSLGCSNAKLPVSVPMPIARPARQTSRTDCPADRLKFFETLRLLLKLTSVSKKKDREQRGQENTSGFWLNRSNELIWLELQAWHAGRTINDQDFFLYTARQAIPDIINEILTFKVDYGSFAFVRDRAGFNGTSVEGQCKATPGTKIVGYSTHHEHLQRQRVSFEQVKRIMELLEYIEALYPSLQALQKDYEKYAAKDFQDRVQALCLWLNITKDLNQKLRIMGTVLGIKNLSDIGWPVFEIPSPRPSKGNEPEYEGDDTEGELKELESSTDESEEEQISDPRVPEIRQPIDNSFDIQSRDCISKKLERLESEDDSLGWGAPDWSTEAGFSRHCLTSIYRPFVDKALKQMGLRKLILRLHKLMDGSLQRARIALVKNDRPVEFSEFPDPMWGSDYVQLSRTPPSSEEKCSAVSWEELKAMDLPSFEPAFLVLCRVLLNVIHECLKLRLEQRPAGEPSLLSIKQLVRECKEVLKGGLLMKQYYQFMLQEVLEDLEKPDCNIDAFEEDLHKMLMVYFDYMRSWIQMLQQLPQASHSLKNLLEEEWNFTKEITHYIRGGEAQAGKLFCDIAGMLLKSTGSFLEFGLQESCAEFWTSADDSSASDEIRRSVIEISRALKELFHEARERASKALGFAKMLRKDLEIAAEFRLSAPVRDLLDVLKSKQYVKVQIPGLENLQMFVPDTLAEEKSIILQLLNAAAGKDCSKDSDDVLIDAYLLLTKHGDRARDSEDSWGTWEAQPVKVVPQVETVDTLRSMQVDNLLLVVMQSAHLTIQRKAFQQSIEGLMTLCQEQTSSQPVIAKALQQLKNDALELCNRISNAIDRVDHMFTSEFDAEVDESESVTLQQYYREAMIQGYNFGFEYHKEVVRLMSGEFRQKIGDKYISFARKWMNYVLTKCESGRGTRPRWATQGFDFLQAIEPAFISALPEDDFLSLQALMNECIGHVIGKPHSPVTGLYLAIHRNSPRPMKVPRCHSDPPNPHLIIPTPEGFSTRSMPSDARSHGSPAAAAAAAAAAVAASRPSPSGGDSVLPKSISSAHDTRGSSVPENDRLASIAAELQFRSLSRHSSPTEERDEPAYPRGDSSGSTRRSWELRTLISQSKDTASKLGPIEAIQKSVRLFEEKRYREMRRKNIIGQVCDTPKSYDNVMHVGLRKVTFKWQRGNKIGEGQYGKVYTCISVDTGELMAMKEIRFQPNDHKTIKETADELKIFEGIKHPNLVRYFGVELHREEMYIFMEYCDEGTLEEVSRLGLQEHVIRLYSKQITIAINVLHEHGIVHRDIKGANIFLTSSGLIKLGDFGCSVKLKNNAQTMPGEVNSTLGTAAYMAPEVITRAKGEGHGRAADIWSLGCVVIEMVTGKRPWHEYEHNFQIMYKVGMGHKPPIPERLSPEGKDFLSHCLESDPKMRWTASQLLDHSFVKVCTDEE

MYLK4 = molecular target: T8, MYLK4 (Homo sapiens, UniProt Q86YV6); type: binding; details: read-out: % Ctrl
T8 construct: purchased DiscoveRx KINOMEscan

FGFR4 = molecular target: T9, FGFR4 (Homo sapiens, UniProt P22455); type: binding; details: read-out: % Ctrl
T9 construct: purchased DiscoveRx KINOMEscan

ALK = molecular target: T10, ALK (Homo sapiens, UniProt Q9UM73); type: binding; details: read-out: % Ctrl
T10 construct: purchased DiscoveRx KINOMEscan

NEK11 = molecular target: T11, NEK11 (Homo sapiens, UniProt Q8NG66); type: binding; details: read-out: % Ctrl
T11 construct: purchased DiscoveRx KINOMEscan

BUB1 = molecular target: T12, BUB1 (Homo sapiens, UniProt O43683); type: binding; details: read-out: % Ctrl
T12 construct: purchased DiscoveRx KINOMEscan

IRAK1 = molecular target: T13, IRAK1 (Homo sapiens, UniProt P51617); type: binding; details: read-out: % Ctrl
T13 construct: purchased DiscoveRx KINOMEscan

CIT = molecular target: T14, CIT (Homo sapiens, UniProt O14578); type: binding; details: read-out: % Ctrl
T14 construct: purchased DiscoveRx KINOMEscan

EIF2AK1 = molecular target: T15, EIF2AK1 (Homo sapiens, UniProt Q9BQI3); type: binding; details: read-out: % Ctrl
T15 construct: purchased DiscoveRx KINOMEscan

ABL1(T315I)-P = molecular target: T16, ABL1(T315I)-P (Homo sapiens, UniProt P00519, T315I); type: binding; details: read-out: % Ctrl
T16 construct: purchased DiscoveRx KINOMEscan

VRK2 = molecular target: T17, VRK2 (Homo sapiens, UniProt Q86Y07); type: binding; details: read-out: % Ctrl
T17 construct: purchased DiscoveRx KINOMEscan

EGFR(L747-T751del,Sins) = type: binding, human; details: 1 µM
CSNK2A1 = molecular target: T18, CSNK2A1 (Homo sapiens, UniProt P68400); type: binding; details: read-out: % Ctrl
T18 construct: purchased DiscoveRx KINOMEscan

DAPK3 = molecular target: T19, DAPK3 (Homo sapiens, UniProt O43293); type: binding; details: read-out: % Ctrl
T19 construct: purchased DiscoveRx KINOMEscan
T19 sequence (O43293 whole entry): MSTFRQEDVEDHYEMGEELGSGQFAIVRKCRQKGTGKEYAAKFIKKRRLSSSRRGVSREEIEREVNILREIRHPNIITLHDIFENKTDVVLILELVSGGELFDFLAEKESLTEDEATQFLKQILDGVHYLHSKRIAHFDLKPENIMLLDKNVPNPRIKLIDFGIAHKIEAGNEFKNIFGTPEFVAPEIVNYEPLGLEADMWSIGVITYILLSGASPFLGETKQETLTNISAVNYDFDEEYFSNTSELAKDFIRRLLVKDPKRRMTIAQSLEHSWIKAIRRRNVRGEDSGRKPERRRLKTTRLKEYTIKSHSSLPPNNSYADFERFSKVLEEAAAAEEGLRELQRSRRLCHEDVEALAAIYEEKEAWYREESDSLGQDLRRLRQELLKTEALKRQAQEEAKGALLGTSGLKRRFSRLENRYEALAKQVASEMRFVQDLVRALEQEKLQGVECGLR

SIK = molecular target: T20, SIK (Homo sapiens, UniProt P57059); type: binding; details: read-out: % Ctrl
T20 construct: purchased DiscoveRx KINOMEscan

EPHA7 = molecular target: T21, EPHA7 (Homo sapiens, UniProt Q15375); type: binding; details: read-out: % Ctrl
T21 construct: purchased DiscoveRx KINOMEscan

FGR = molecular target: T22, FGR (Homo sapiens, UniProt P09769); type: binding; details: read-out: % Ctrl
T22 construct: purchased DiscoveRx KINOMEscan

CAMKK1 = molecular target: T23, CAMKK1 (Homo sapiens, UniProt Q8N5S9); type: binding; details: read-out: % Ctrl
T23 construct: purchased DiscoveRx KINOMEscan
T23 sequence (Q8N5S9 whole entry): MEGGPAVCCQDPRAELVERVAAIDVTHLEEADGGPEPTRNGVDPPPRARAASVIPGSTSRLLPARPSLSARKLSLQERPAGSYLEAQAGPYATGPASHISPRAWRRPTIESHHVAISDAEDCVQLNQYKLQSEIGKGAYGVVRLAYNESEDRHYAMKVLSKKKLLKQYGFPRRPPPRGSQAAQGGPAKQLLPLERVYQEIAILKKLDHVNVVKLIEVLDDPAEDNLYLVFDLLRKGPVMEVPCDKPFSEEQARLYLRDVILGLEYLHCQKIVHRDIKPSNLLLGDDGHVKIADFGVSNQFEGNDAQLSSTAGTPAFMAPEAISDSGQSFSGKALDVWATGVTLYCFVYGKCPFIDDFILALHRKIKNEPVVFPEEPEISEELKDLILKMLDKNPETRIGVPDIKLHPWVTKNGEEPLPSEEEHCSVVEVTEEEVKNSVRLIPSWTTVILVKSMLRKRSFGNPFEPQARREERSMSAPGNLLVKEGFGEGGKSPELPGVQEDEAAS

FLT3-autoi. = molecular target: T24, FLT3-autoi. (Homo sapiens, UniProt P36888); type: binding; details: read-out: % Ctrl
T24 construct: purchased DiscoveRx KINOMEscan

MUSK = molecular target: T25, MUSK (Homo sapiens, UniProt O15146); type: binding; details: read-out: % Ctrl
T25 construct: purchased DiscoveRx KINOMEscan

AURKB = molecular target: T26, AURKB (Homo sapiens, UniProt Q96GD4); type: binding; details: read-out: % Ctrl
T26 construct: purchased DiscoveRx KINOMEscan
T26 sequence (Q96GD4 whole entry): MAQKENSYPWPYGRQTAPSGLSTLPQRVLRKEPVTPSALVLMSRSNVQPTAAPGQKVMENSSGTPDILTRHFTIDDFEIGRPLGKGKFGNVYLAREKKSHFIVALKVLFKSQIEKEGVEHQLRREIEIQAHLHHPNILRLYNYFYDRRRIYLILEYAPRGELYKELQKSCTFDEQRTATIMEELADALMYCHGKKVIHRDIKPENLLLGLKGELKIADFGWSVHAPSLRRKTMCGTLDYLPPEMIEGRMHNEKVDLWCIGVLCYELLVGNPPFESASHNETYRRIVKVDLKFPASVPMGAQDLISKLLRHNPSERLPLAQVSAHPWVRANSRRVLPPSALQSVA

CAMK2D = molecular target: T27, CAMK2D (Homo sapiens, UniProt Q13557); type: binding; details: read-out: % Ctrl
T27 construct: purchased DiscoveRx KINOMEscan

TSSK1B = molecular target: T28, TSSK1B (Homo sapiens, UniProt Q9BXA7); type: binding; details: read-out: % Ctrl
T28 construct: purchased DiscoveRx KINOMEscan

MAPKAPK5 = molecular target: T29, MAPKAPK5 (Homo sapiens, UniProt Q8IW41); type: binding; details: read-out: % Ctrl
T29 construct: purchased DiscoveRx KINOMEscan

ABL1(F317I)-P = molecular target: T30, ABL1(F317I)-P (Homo sapiens, UniProt P00519, F317I); type: binding; details: read-out: % Ctrl
T30 construct: purchased DiscoveRx KINOMEscan

SGK2 = molecular target: T31, SGK2 (Homo sapiens, UniProt Q9HBY8); type: binding; details: read-out: % Ctrl
T31 construct: purchased DiscoveRx KINOMEscan

BTK = molecular target: T32, BTK (Homo sapiens, UniProt Q06187); type: binding; details: read-out: % Ctrl
T32 construct: purchased DiscoveRx KINOMEscan

RSK1(KD2-C-t.) = molecular target: T33, RSK1(KD2-C-t.) (Homo sapiens, UniProt Q15418); type: binding; details: read-out: % Ctrl
T33 construct: RSK1(KD2-C-t.); purchased DiscoveRx KINOMEscan

PRKD3 = molecular target: T34, PRKD3 (Homo sapiens, UniProt O94806); type: binding; details: read-out: % Ctrl
T34 construct: purchased DiscoveRx KINOMEscan
T34 sequence (O94806 whole entry): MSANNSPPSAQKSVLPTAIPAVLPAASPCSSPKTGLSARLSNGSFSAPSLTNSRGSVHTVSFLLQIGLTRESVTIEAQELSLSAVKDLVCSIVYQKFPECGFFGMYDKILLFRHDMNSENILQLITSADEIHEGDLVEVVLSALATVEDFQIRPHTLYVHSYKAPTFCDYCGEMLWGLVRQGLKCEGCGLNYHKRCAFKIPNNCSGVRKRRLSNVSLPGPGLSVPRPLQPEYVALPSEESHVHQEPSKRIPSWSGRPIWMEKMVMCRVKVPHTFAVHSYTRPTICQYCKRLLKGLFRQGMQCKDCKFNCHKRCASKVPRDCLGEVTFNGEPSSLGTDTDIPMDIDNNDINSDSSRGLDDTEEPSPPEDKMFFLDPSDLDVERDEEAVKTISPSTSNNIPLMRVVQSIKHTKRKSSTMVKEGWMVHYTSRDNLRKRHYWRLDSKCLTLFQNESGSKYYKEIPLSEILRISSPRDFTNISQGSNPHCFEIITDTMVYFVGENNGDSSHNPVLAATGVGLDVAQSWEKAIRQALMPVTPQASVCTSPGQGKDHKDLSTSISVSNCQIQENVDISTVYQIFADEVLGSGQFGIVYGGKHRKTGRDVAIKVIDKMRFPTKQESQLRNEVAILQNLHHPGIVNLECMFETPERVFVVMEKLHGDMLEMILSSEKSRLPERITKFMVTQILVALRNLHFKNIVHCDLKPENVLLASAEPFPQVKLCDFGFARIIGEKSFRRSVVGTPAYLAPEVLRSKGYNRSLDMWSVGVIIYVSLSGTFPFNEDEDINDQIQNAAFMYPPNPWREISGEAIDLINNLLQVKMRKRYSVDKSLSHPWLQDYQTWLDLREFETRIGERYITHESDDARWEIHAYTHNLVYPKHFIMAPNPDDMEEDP

T2 sequence (Q8TBX8 whole entry): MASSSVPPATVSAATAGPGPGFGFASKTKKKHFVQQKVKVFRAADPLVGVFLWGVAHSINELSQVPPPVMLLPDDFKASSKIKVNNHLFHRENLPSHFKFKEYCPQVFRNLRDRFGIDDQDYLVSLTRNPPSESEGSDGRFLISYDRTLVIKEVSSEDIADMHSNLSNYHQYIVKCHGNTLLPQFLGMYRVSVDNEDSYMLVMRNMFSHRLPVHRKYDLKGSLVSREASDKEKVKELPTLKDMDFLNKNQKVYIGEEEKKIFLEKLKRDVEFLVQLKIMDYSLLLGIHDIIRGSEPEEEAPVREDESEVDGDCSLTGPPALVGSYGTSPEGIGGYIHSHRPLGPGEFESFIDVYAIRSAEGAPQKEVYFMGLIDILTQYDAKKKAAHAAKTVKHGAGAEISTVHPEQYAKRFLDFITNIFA

`CN1CCC(CNc2ccc3ncc(C(=O)Nc4cccc(OC(F)(F)F)c4)n3n2)CC1` [Cpd 2] showed a remaining binding at 1 µM (RIPK4) of 96%, a remaining binding at 1 µM (PIP5K2C) of 58% and a remaining binding at 1 µM (FGFR3(G697C)) of 99%. It also gave a remaining binding at 1 µM (SNRK) of 98%, a remaining binding at 1 µM (MST1R) of 100% and a remaining binding at 1 µM (PFPK5(P.falciparum)) of 97%. For the same molecule, the remaining binding at 1 µM (MAP3K4) was 86%, the remaining binding at 1 µM (MYLK4) was 100% and the remaining binding at 1 µM (FGFR4) was 100%. The remaining binding at 1 µM (ALK) was 100%, the remaining binding at 1 µM (NEK11) was 79% and the remaining binding at 1 µM (BUB1) was 62%. The remaining binding at 1 µM (IRAK1) was 100%, the remaining binding at 1 µM (CIT) was 60% and the remaining binding at 1 µM (EIF2AK1) was 95%. For the same molecule, the remaining binding at 1 µM (ABL1(T315I)-P) was 100%, the remaining binding at 1 µM (VRK2) was 100% and the “% Ctrl” value (EGFR(L747-T751del,Sins)) was 87%. It also gave a remaining binding at 1 µM (CSNK2A1) of 98%, a remaining binding at 1 µM (DAPK3) of 75% and a remaining binding at 1 µM (SIK) of 99%. It also gave a remaining binding at 1 µM (EPHA7) of 100%, a remaining binding at 1 µM (FGR) of 77% and a remaining binding at 1 µM (CAMKK1) of 94%. The remaining binding at 1 µM (FLT3-autoi.) was 82%, the remaining binding at 1 µM (MUSK) was 99% and the remaining binding at 1 µM (AURKB) was 97%. For the same molecule, the remaining binding at 1 µM (CAMK2D) was 99%, the remaining binding at 1 µM (TSSK1B) was 95% and the remaining binding at 1 µM (MAPKAPK5) was 100%. It also gave a remaining binding at 1 µM (ABL1(F317I)-P) of 94%, a remaining binding at 1 µM (SGK2) of 100% and a remaining binding at 1 µM (BTK) of 100%. The remaining binding at 1 µM (RSK1(KD2-C-t.)) was 89% and the remaining binding at 1 µM (PRKD3) was 92%.
